Assay results taken from US12391672B2, “Solid forms comprising (S)-4-(4-(4-(((2-(2,6-dioxopiperidin-3-yl)-1-oxoisoindolin-4-yl)oxy)methyl)benzyl)piperazin-1-yl)-3-fluorobenzonitrile and salts thereof, and compositions comprising and methods of using the same” (Celgene Corporation, priority 2019, dated 2025).

Experiment: Solubility determination (15 minutes at room temperature, HPLC)
Assay type: physicochemical
Conditions: fifteen minutes
Experimental: 1 mL of buffer or of ultrapure (resistivity≥18.2 Mf cm) water was added to a pre-weighed, approximately twenty milligram aliquot of the substance to be measured. The resulting suspensions were stirred for 15 minutes at room temperature with magnetic stirrers. The suspensions were centrifuged and filtered through Millipore 0.2 μm PVDF filters, and the concentration of each filtrate (i.e., saturated solution) was determined using a general HPLC method. The pH of each saturated solution was measured with a Metrohm 713 pH meter.
To assess whether Form K and Form K′ are likely to have different bioavailabilities, comparative solubility measurements were carried out in physiologically relevant media. Samples of Form K and Form K′ were separately equilibrated in pure water, pH 2.0 buffer, and pH 6.8 buffer for fifteen minutes, and the solids were then separated from the solvents. The concentration of the compound in the filtrate (i.e., the solubility) was assessed in each case, and the solid residues were also monitored by powder X-ray diffraction. All six solid residues correspond to Form K, confirming that Form K′ rapidly incorporates water into its lattice when suspended in an aqueous environment even when the solubility is low. While the solubilities in pure water and at pH 6.8 were below the limit of quantitation of 0.0001 mg/mL, the solubilities at pH 2.0 could be measured. […] Thus, the bioavailabilities of the two forms are expected to be similar, and precise control of the water content (and, thereby, the solid form) is presumably not necessary from a scientific point of view. Given that the critical water activity is in the range aH2O=0.11-0.17, the hydrated Form K is likely to be the more easily stabilized of the two forms under ambient laboratory conditions.

## N#Cc1ccc(N2CCN(Cc3ccc(COc4cccc5c4CN([C@H]4CCC(=O)NC4=O)C5=O)cc3)CC2)c(F)c1.O [Form K of a free base of Compound 1]
pH 2.0 buffer
  solubility at pH 2.0: 0.96 mg/mL
Pure water, pH 2.0 buffer and pH 6.8 buffer
  solid residue after solubility measurement (powder X-ray diffraction): Form K
